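These data come from cells grown in 96-well plates and exposed to compound for 48 hours at five concentrations. Here, GI50 denotes the concentration required for 50% inhibition of growth.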 The source made the active and inactive calls. Cut-off read from the data, not from the text of the source: active = GI50 up to about 1.1 µM and inactive = higher.
Experiments:
Assay in all cases: inhibition of tumour cell growth, NCI panel, 48 h
A549 = tested on: A549
ACHN = tested on: ACHN
CCRF-CEM = tested on: CCRF-CEM
COLO 205 = tested on: COLO 205
HCT-15 = tested on: HCT-15
HOP-62 = tested on: HOP-62
IGROV-1 = tested on: IGROV-1
M19-MEL = tested on: M19-MEL
RPMI-8226 = tested on: RPMI-8226
SF-539 = tested on: SF-539
SN12C = tested on: SN12C
SNB-19 = tested on: SNB-19
SW-620 = tested on: SW-620
TK-10 = tested on: TK-10
UO-31 = tested on: UO-31
LOX IMVI = tested on: LOX IMVI
MCF7 = tested on: MCF7
MDA-MB-435 = tested on: MDA-MB-435
MDA-N = tested on: MDA-N
SR = tested on: SR

| SMILES | GI50 (A549) | GI50 (ACHN) | GI50 (CCRF-CEM) | GI50 (COLO 205) | GI50 (HCT-15) [µM] | GI50 (HOP-62) | GI50 (IGROV-1) | GI50 (M19-MEL) | GI50 (RPMI-8226) | GI50 (SF-539) | GI50 (SN12C) | GI50 (SNB-19) | GI50 (SW-620) | GI50 (TK-10) | GI50 (UO-31) | GI50 (LOX IMVI) | GI50 (MCF7) | GI50 (MDA-MB-435) | GI50 (MDA-N) | GI50 (SR) |
| --- | --- | --- | --- | --- | --- | --- | --- | --- | --- | --- | --- | --- | --- | --- | --- | --- | --- | --- | --- | --- |
| Clc1cccc(C2SCc3nc4ccccc4n32)c1Cl (stereo not given) | 17.9 µM (inactive) | 20.8 µM (inactive) | 19.1 µM (inactive) | 19.8 µM (inactive) | 17.4 | 17.4 µM (inactive) | 16.6 µM (inactive) | 12.5 µM (inactive) | 13.3 µM (inactive) | 17.2 µM (inactive) | 16.1 µM (inactive) | 18 µM (inactive) | 17.1 µM (inactive) | 15.6 µM (inactive) | 13 µM (inactive) |  |  |  |  |  |
| O=C1c2cc3c(cc2CC12Cc1cc4c(cc1C2=O)CCCC4)CCCC3 | 59.2 µM (inactive) | 62.1 µM (inactive) | > 100 µM (inactive) | > 100 µM (inactive) | > 100 | 24.2 µM (inactive) | 71 µM (inactive) |  | > 100 µM (inactive) | 52.2 µM (inactive) | 56.2 µM (inactive) | 33.8 µM (inactive) | > 100 µM (inactive) | 31.8 µM (inactive) | > 100 µM (inactive) | > 100 µM (inactive) | > 100 µM (inactive) | > 100 µM (inactive) | > 100 µM (inactive) | 37.1 µM (inactive) |
| O=C(Cc1nc2ccccc2s1)C(=O)Nc1ccccc1C(F)(F)F | > 100 µM (inactive) | > 100 µM (inactive) | > 100 µM (inactive) | > 100 µM (inactive) | > 100 | > 100 µM (inactive) | > 100 µM (inactive) | > 100 µM (inactive) |  | > 100 µM (inactive) | > 100 µM (inactive) | > 100 µM (inactive) | > 100 µM (inactive) | > 100 µM (inactive) | > 100 µM (inactive) | > 100 µM (inactive) |  |  |  |  |
| COC(=O)/C=C1/OC(c2ccccc2)=C(Cl)C1=O | 26.4 µM (inactive) | 17.7 µM (inactive) | 5.58 µM (inactive) | 15.9 µM (inactive) | 8.97 | 25.9 µM (inactive) | 19.8 µM (inactive) |  | 7.33 µM (inactive) | 19.8 µM (inactive) | 23.1 µM (inactive) | 31.3 µM (inactive) | 20.5 µM (inactive) | 31.9 µM (inactive) | 20.9 µM (inactive) | 13.6 µM (inactive) | 16.7 µM (inactive) | 19.3 µM (inactive) | 20.3 µM (inactive) | 4.72 µM (inactive) |
| CCOC(=O)C1C(=O)C(C(=O)OCC)C(c2ccccc2)N(C)C1c1ccccc1 (stereo not given) | > 100 µM (inactive) | > 100 µM (inactive) | > 100 µM (inactive) | > 100 µM (inactive) | 82.4 | > 100 µM (inactive) | > 100 µM (inactive) | > 100 µM (inactive) |  | > 100 µM (inactive) | > 100 µM (inactive) | > 100 µM (inactive) | > 100 µM (inactive) | > 100 µM (inactive) | > 100 µM (inactive) | 33.9 µM (inactive) |  |  |  | > 100 µM (inactive) |
| Nc1nc2c3nc(Nc4ccccc4)sc3nc(=O)n2c2sc(Nc3ccccc3)nc12 | > 100 µM (inactive) | > 100 µM (inactive) | > 100 µM (inactive) | > 100 µM (inactive) | > 100 | > 100 µM (inactive) | > 100 µM (inactive) | > 100 µM (inactive) | > 100 µM (inactive) | > 100 µM (inactive) | > 100 µM (inactive) | > 100 µM (inactive) | > 100 µM (inactive) |  | > 100 µM (inactive) |  |  |  |  | > 100 µM (inactive) |
| N=C1N(c2ccccc2)C(=O)C23CCCC2C13N1CCOCC1 (stereo not given) | > 100 µM (inactive) | > 100 µM (inactive) | > 100 µM (inactive) | > 100 µM (inactive) | > 100 | > 100 µM (inactive) | > 100 µM (inactive) | > 100 µM (inactive) | > 100 µM (inactive) | > 100 µM (inactive) | > 100 µM (inactive) | > 100 µM (inactive) | > 100 µM (inactive) |  | > 100 µM (inactive) |  |  |  |  | > 100 µM (inactive) |
| NNC(=S)N/N=C(\CC1OC(=O)c2ccccc21)c1ccccc1O (stereo not given) | 64.3 µM (inactive) | 59.3 µM (inactive) | 25.9 µM (inactive) | 47 µM (inactive) | 55.8 | 33 µM (inactive) | 38 µM (inactive) | 20.7 µM (inactive) |  | 19.5 µM (inactive) | 46.8 µM (inactive) | 32.4 µM (inactive) | 55.7 µM (inactive) | > 100 µM (inactive) | 37.7 µM (inactive) | 17.6 µM (inactive) |  |  |  | 16.3 µM (inactive) |

From ChEMBL document CHEMBL1201862, “PubChem BioAssay data set” (2004)
